Experimental data published in ChEMBL document CHEMBL3390848, “Affinity selection and sequence-activity relationships of HIV-1 membrane fusion inhibitors directed at the drug-resistant variants” (Medchemcomm, 2010).
Residues, ends and D or L forms follow the SMILES beside them.

Key:
[1] = system: Human immunodeficiency virus 1; assay: Binding affinity to HIV1 His-tagged N-terminal heptad repeat of envelope glycoprotein gp41 assessed as recovery of N36-drug complex at 10 uM after 2 hrs by LC-MS analysis
[2] = system: Human immunodeficiency virus 1; assay: Binding affinity to HIV1 His-tagged N-terminal heptad repeat of envelope glycoprotein gp41 assessed as recovery of N36-drug complex at 1 uM after 2 hrs by LC-MS analysis
[3] = system: Human immunodeficiency virus 1; assay: Antiviral activity against HIV1 NL4-3 harboring gp41 D36G mutant infected in human HeLa cells expressing CD4-LTR-beta-gal assessed as inhibition of viral replication after 48 hrs by MAGI assay; format: functional, organism-based
[4] = system: Human immunodeficiency virus 1; assay: Thermal stability of HIV1 envelope glycoprotein gp41 His-tagged N-terminal heptad repeat N36-drug complex assessed as thermal unfolding transition state by measuring molar ellipticity at 4 to 90 degC by circular dichroic spectra analysis
[5] = system: Human immunodeficiency virus 1; assay: Binding affinity to HIV1 His-tagged N-terminal heptad repeat of envelope glycoprotein gp41 assessed as recovery of N36-drug complex at 6 uM after 2 hrs by LC-MS analysis
[6] = system: Human immunodeficiency virus 1; assay: Binding affinity to HIV1 His-tagged N-terminal heptad repeat of envelope glycoprotein gp41 assessed as recovery of N36-drug complex at 0.6 uM after 2 hrs by LC-MS analysis
[7] = system: Human immunodeficiency virus 1; assay: Binding affinity to HIV1 His-tagged N-terminal heptad repeat of envelope glycoprotein gp41 assessed as recovery of N36-drug complex after 2 hrs by LC-MS analysis; design: concentration or dose not given beside the values

Structure (SMILES)	Activity [1]	Activity [2]	EC50 [3]	Tm [4]	Activity [5]	Activity [6]	Activity [7]
CC[C@H](C)[C@H](NC(=O)[C@H](CCCCN)NC(=O)[C@H](CCCCN)NC(=O)[C@H](CC(=O)O)NC(=O)[C@H](Cc1c[nH]c2ccccc12)NC(=O)[C@H](CCC(=O)O)NC(=O)[C@H](CCC(=O)O)NC(=O)[C@H](Cc1c[nH]c2ccccc12)NC(C)=O)C(=O)N[C@@H](CCC(=O)O)C(=O)N[C@@H](CCC(=O)O)C(=O)N[C@@H](Cc1ccc(O)cc1)C(=O)N[C@H](C(=O)N[C@@H](CCCCN)C(=O)N[C@@H](CCCCN)C(=O)N[C@H](C(=O)N[C@@H](CCC(=O)O)C(=O)N[C@@H](CCC(=O)O)C(=O)N[C@@H](CC(C)C)C(=O)N[C@H](C(=O)N[C@@H](CCCCN)C(=O)N[C@@H](CCCCN)C(=O)N[C@H](C(=O)N[C@@H](CCC(=O)O)C(=O)N[C@@H](CCC(=O)O)C(=O)N[C@@H](CCC(N)=O)C(=O)N[C@@H](CCC(N)=O)C(=O)N[C@@H](CCCCN)C(=O)N[C@@H](CCCCN)C(=O)N[C@@H](CC(N)=O)C(=O)N[C@@H](CCC(=O)O)C(=O)N[C@@H](CCC(=O)O)C(=O)N[C@@H](CCC(=O)O)C(=O)N[C@@H](CC(C)C)C(=O)N[C@@H](CCCCN)C(=O)N[C@@H](CCCCN)C(N)=O)[C@@H](C)CC)[C@@H](C)CC)[C@@H](C)CC)[C@@H](C)O (Ac-WEEWDKKIEEYTKKIEELIKKIEEQQKKNEEELKK-NH2)	4.7%	11.3%	1.3 nM	84.6 °C	7.6%	6.9%	–
CC[C@H](C)[C@H](NC(=O)[C@H](CC(C)C)NC(=O)[C@H](CCC(=O)O)NC(=O)[C@H](CCC(=O)O)NC(=O)[C@@H](NC(=O)[C@H](CCCCN)NC(=O)[C@H](CCCCN)NC(=O)[C@@H](NC(=O)[C@H](Cc1ccc(O)cc1)NC(=O)[C@H](CCC(=O)O)NC(=O)[C@H](CCC(=O)O)NC(=O)[C@@H](NC(=O)[C@H](CCCCN)NC(=O)[C@H](CCCCN)NC(=O)[C@H](CC(=O)O)NC(=O)[C@H](Cc1c[nH]c2ccccc12)NC(=O)[C@H](CCC(=O)O)NC(=O)[C@H](CCC(=O)O)NC(=O)[C@H](Cc1c[nH]c2ccccc12)NC(C)=O)[C@@H](C)CC)[C@@H](C)O)[C@@H](C)CC)C(=O)N[C@@H](CCCCN)C(=O)N[C@@H](CCCCN)C(=O)N[C@@H](CC(=O)O)C(=O)N[C@@H](CCC(=O)O)C(=O)N[C@@H](CCC(=O)O)C(=O)N[C@@H](CCC(N)=O)C(=O)N[C@@H](CCC(N)=O)C(=O)N[C@@H](CCCCN)C(=O)N[C@@H](CCCCN)C(=O)N[C@@H](CC(N)=O)C(=O)N[C@@H](CCC(=O)O)C(=O)N[C@@H](CCC(=O)O)C(=O)N[C@@H](CCC(=O)O)C(=O)N[C@@H](CC(C)C)C(=O)N[C@@H](CCCCN)C(=O)N[C@@H](CCCCN)C(N)=O (Ac-WEEWDKKIEEYTKKIEELIKKDEEQQKKNEEELKK-NH2)	0.7%	0%	15 nM	59.7 °C	0%	4.3%	–
CC[C@H](C)[C@H](NC(=O)[C@H](CC(C)C)NC(=O)[C@H](CCC(=O)O)NC(=O)[C@H](CCC(=O)O)NC(=O)[C@@H](NC(=O)[C@H](CCCCN)NC(=O)[C@H](CCCCN)NC(=O)[C@@H](NC(=O)[C@H](Cc1ccc(O)cc1)NC(=O)[C@H](CCC(=O)O)NC(=O)[C@H](CCC(=O)O)NC(=O)[C@@H](NC(=O)[C@H](CCCCN)NC(=O)[C@H](CCCCN)NC(=O)[C@H](CC(=O)O)NC(=O)[C@H](Cc1c[nH]c2ccccc12)NC(=O)[C@H](CCC(=O)O)NC(=O)[C@H](CCC(=O)O)NC(=O)[C@H](Cc1c[nH]c2ccccc12)NC(C)=O)[C@@H](C)CC)[C@@H](C)O)[C@@H](C)CC)C(=O)N[C@@H](CCCCN)C(=O)N[C@@H](CCCCN)C(=O)N[C@@H](CCSC)C(=O)N[C@@H](CCC(=O)O)C(=O)N[C@@H](CCC(=O)O)C(=O)N[C@@H](CCC(N)=O)C(=O)N[C@@H](CCC(N)=O)C(=O)N[C@@H](CCCCN)C(=O)N[C@@H](CCCCN)C(=O)N[C@@H](CC(N)=O)C(=O)N[C@@H](CCC(=O)O)C(=O)N[C@@H](CCC(=O)O)C(=O)N[C@@H](CCC(=O)O)C(=O)N[C@@H](CC(C)C)C(=O)N[C@@H](CCCCN)C(=O)N[C@@H](CCCCN)C(N)=O (Ac-WEEWDKKIEEYTKKIEELIKKMEEQQKKNEEELKK-NH2)	8.9%	12.5%	0.68 nM	84.1 °C	13.3%	6.8%	–
CC[C@H](C)[C@H](NC(=O)[C@H](CCC(=O)O)NC(=O)[C@H](CCC(=O)O)NC(=O)[C@H](CO)NC(=O)[C@H](CCCCN)NC(=O)[C@H](CCCCN)NC(=O)[C@@H](NC(=O)[C@H](CC(C)C)NC(=O)[C@H](CCC(=O)O)NC(=O)[C@H](CCC(=O)O)NC(=O)[C@@H](NC(=O)[C@H](CCCCN)NC(=O)[C@H](CCCCN)NC(=O)[C@@H](NC(=O)[C@H](Cc1ccc(O)cc1)NC(=O)[C@H](CCC(=O)O)NC(=O)[C@H](CCC(=O)O)NC(=O)[C@@H](NC(=O)[C@H](CCCCN)NC(=O)[C@H](CCCCN)NC(=O)[C@H](CC(=O)O)NC(=O)[C@H](Cc1c[nH]c2ccccc12)NC(=O)[C@H](CCC(=O)O)NC(=O)[C@H](CCC(=O)O)NC(=O)[C@H](Cc1c[nH]c2ccccc12)NC(C)=O)[C@@H](C)CC)[C@@H](C)O)[C@@H](C)CC)[C@@H](C)CC)C(=O)N[C@@H](CCC(N)=O)C(=O)N[C@@H](CCCCN)C(=O)N[C@@H](CCCCN)C(=O)N[C@@H](CC(N)=O)C(=O)N[C@@H](CCC(=O)O)C(=O)N[C@@H](CCC(=O)O)C(=O)N[C@@H](CCC(=O)O)C(=O)N[C@@H](CC(C)C)C(=O)N[C@@H](CCCCN)C(=O)N[C@@H](CCCCN)C(N)=O (Ac-WEEWDKKIEEYTKKIEELIKKSEEIQKKNEEELKK-NH2)	–	–	2.9 nM	79.7 °C	–	–	8.2%
CC[C@H](C)[C@H](NC(=O)[C@H](CC(C)C)NC(=O)[C@H](CCC(=O)O)NC(=O)[C@H](CCC(=O)O)NC(=O)[C@@H](NC(=O)[C@H](CCCCN)NC(=O)[C@H](CCCCN)NC(=O)[C@@H](NC(=O)[C@H](Cc1ccc(O)cc1)NC(=O)[C@H](CCC(=O)O)NC(=O)[C@H](CCC(=O)O)NC(=O)[C@@H](NC(=O)[C@H](CCCCN)NC(=O)[C@H](CCCCN)NC(=O)[C@H](CC(=O)O)NC(=O)[C@H](Cc1c[nH]c2ccccc12)NC(=O)[C@H](CCC(=O)O)NC(=O)[C@H](CCC(=O)O)NC(=O)[C@H](Cc1c[nH]c2ccccc12)NC(C)=O)[C@@H](C)CC)[C@@H](C)O)[C@@H](C)CC)C(=O)N[C@@H](CCCCN)C(=O)N[C@@H](CCCCN)C(=O)N[C@@H](CO)C(=O)N[C@@H](CCC(=O)O)C(=O)N[C@@H](CCC(=O)O)C(=O)N1CCC[C@H]1C(=O)N[C@@H](CCC(N)=O)C(=O)N[C@@H](CCCCN)C(=O)N[C@@H](CCCCN)C(=O)N[C@@H](CC(N)=O)C(=O)N[C@@H](CCC(=O)O)C(=O)N[C@@H](CCC(=O)O)C(=O)N[C@@H](CCC(=O)O)C(=O)N[C@@H](CC(C)C)C(=O)N[C@@H](CCCCN)C(=O)N[C@@H](CCCCN)C(N)=O (Ac-WEEWDKKIEEYTKKIEELIKKSEEPQKKNEEELKK-NH2)	–	–	58 nM	60.2 °C	–	–	0%
CC[C@H](C)[C@H](NC(=O)[C@H](CC(C)C)NC(=O)[C@H](CCC(=O)O)NC(=O)[C@H](CCC(=O)O)NC(=O)[C@@H](NC(=O)[C@H](CCCCN)NC(=O)[C@H](CCCCN)NC(=O)[C@@H](NC(=O)[C@H](Cc1ccc(O)cc1)NC(=O)[C@H](CCC(=O)O)NC(=O)[C@H](CCC(=O)O)NC(=O)[C@@H](NC(=O)[C@H](CCCCN)NC(=O)[C@H](CCCCN)NC(=O)[C@H](CC(=O)O)NC(=O)[C@H](Cc1c[nH]c2ccccc12)NC(=O)[C@H](CCC(=O)O)NC(=O)[C@H](CCC(=O)O)NC(=O)[C@H](Cc1c[nH]c2ccccc12)NC(C)=O)[C@@H](C)CC)[C@@H](C)O)[C@@H](C)CC)C(=O)N[C@@H](CCCCN)C(=O)N[C@@H](CCCCN)C(=O)N[C@@H](CO)C(=O)N[C@@H](CCC(=O)O)C(=O)N[C@@H](CCC(=O)O)C(=O)N[C@@H](CC(=O)O)C(=O)N[C@@H](CCC(N)=O)C(=O)N[C@@H](CCCCN)C(=O)N[C@@H](CCCCN)C(=O)N[C@@H](CC(N)=O)C(=O)N[C@@H](CCC(=O)O)C(=O)N[C@@H](CCC(=O)O)C(=O)N[C@@H](CCC(=O)O)C(=O)N[C@@H](CC(C)C)C(=O)N[C@@H](CCCCN)C(=O)N[C@@H](CCCCN)C(N)=O (Ac-WEEWDKKIEEYTKKIEELIKKSEEDQKKNEEELKK-NH2)	–	–	2.9 nM	75.1 °C	–	–	4.5%
CC[C@H](C)[C@H](NC(=O)[C@H](CC(C)C)NC(=O)[C@H](CCC(=O)O)NC(=O)[C@H](CCC(=O)O)NC(=O)[C@@H](NC(=O)[C@H](CCCCN)NC(=O)[C@H](CCCCN)NC(=O)[C@@H](NC(=O)[C@H](Cc1ccc(O)cc1)NC(=O)[C@H](CCC(=O)O)NC(=O)[C@H](CCC(=O)O)NC(=O)[C@@H](NC(=O)[C@H](CCCCN)NC(=O)[C@H](CCCCN)NC(=O)[C@H](CC(=O)O)NC(=O)[C@H](Cc1c[nH]c2ccccc12)NC(=O)[C@H](CCC(=O)O)NC(=O)[C@H](CCC(=O)O)NC(=O)[C@H](Cc1c[nH]c2ccccc12)NC(C)=O)[C@@H](C)CC)[C@@H](C)O)[C@@H](C)CC)C(=O)N[C@@H](CCCCN)C(=O)N[C@@H](CCCCN)C(=O)N[C@@H](CO)C(=O)N[C@@H](CCC(=O)O)C(=O)N[C@@H](CCC(=O)O)C(=O)N[C@@H](Cc1cnc[nH]1)C(=O)N[C@@H](CCC(N)=O)C(=O)N[C@@H](CCCCN)C(=O)N[C@@H](CCCCN)C(=O)N[C@@H](CC(N)=O)C(=O)N[C@@H](CCC(=O)O)C(=O)N[C@@H](CCC(=O)O)C(=O)N[C@@H](CCC(=O)O)C(=O)N[C@@H](CC(C)C)C(=O)N[C@@H](CCCCN)C(=O)N[C@@H](CCCCN)C(N)=O (Ac-WEEWDKKIEEYTKKIEELIKKSEEHQKKNEEELKK-NH2)	–	–	2 nM	72.6 °C	–	–	4.3%
